Results on five compounds are retold here after paper PMC11822212, “High-throughput screening identifies Aurora kinase B as a critical therapeutic target for Merkel cell carcinoma” (Nature Communications, 2025).

One experiment has as its system MKL-1 cells (VP-MCC). In words: qHTS cell viability (CellTiter-Glo, 72 h; primary and follow-up small molecule screen). It is filed as cell-based, human. For orientation: In qHTS, concentration-response curves come from the screen itself.
A further experiment deals with CRL-7250 cells. In words: qHTS cell viability (CellTiter-Glo, 72 h; primary screen), control cell line. It is filed as cell-based.
Another experiment deals with MCC13 cells (VN-MCC). In words: qHTS cell viability (CellTiter-Glo, 72 h; primary and follow-up small molecule screen). It is filed as cell-based, human.
The subject of the next experiment is UISO cells (VN-MCC). The description is as above. It is filed as cell-based, human.
Another experiment deals with MCC26 cells (VN-MCC). The description is as above. It counts as cell-based, human.
For another experiment, the system named is HEK293T cells. Kind of experiment: qHTS cell viability (CellTiter-Glo, 72 h; primary screen), control cell line. It is filed as cell-based, human.
A further experiment relates to NIH-3T3 cells. The experiment is described as above. It is filed as cell-based, mouse.
A further experiment deals with HACAT cells. Described as above. It counts as cell-based, human.
The subject of a further experiment is WAGA cells (VP-MCC). In words: qHTS cell viability (CellTiter-Glo, 72 h; primary and follow-up small molecule screen). It counts as cell-based, human.
Another experiment concerns MKL-2 cells (VP-MCC). The experiment is described as above. It is filed as cell-based, human.
The mark [1] stands for this setting: area under the dose-response curve, MKL-1 cells, AUC<450 = reduced viability.
Where [2] appears, read: area under the dose-response curve, CRL7250 control cells, AUC<450 = reduced viability.
[3] abbreviates: area under the dose-response curve, MCC13 cells, AUC<450 = reduced viability.
Setting [4] is: area under the dose-response curve, UISO cells, AUC<450 = reduced viability.
Setting [5] is: area under the dose-response curve, MCC26 cells, AUC<450 = reduced viability.
[6] abbreviates: area under the dose-response curve, HEK293T control cells, AUC<450 = reduced viability.
Setting [7] is: area under the dose-response curve, NIH3T3 control cells, AUC<450 = reduced viability.
Setting [8] is: area under the dose-response curve, HACAT control cells, AUC<450 = reduced viability.
The mark [9] stands for this setting: area under the dose-response curve, WAGA cells, AUC<450 = reduced viability.
Setting [10] is: area under the dose-response curve, MKL-2 cells, AUC<450 = reduced viability.

Structures can show the parent of a compound that is named as a salt. Where two headings read alike, the source gives them in different places.

On to `CCCCCCCCCCCC1=C(O)C(=O)C=C(O)C1=O` [Embelin], for which the MKL1_AUC in the experiment on MKL-1 cells (VP-MCC) (setting [1]) worked out at 418.887. Also, the “Area under the dose-response curve (AUC) MKL-1 Replicate 1” value in the experiment with MKL-1 cells (VP-MCC) (follow-up screen, MKL-1, replicate 1) was found to be 561.5. The “Area under the dose-response curve (AUC) MKL-1 Replicate 2” value with MKL-1 cells (VP-MCC) (follow-up screen, MKL-1, replicate 2) was 475.0. Moreover, in the experiment on MKL-1 cells (VP-MCC) (follow-up screen, MKL-1, replicate 3), the “Area under the dose-response curve (AUC) MKL-1 Replicate 3” value worked out at 443.8. Further, the CRL7250_AUC with CRL-7250 cells (setting [2]) is 461.338. The compound further yielded an MCC13_AUC with MCC13 cells (VN-MCC) (setting [3]) of 489.799. In the experiment on MCC13 cells (VN-MCC) (follow-up screen, MCC13, replicate 1), the “Area under the dose-response curve (AUC) MCC13 Replicate 1” value was found to be 496.2. In addition, the “Area under the dose-response curve (AUC) MCC13 Replicate 2” value with MCC13 cells (VN-MCC) (follow-up screen, MCC13, replicate 2) is reported as 470.6. The “Area under the dose-response curve (AUC) MCC13 Replicate 3” value in the experiment on MCC13 cells (VN-MCC) (follow-up screen, MCC13, replicate 3) came to 448.5. Further, in the experiment with UISO cells (VN-MCC) (setting [4]), the UISO_AUC was found to be 474.744. Moreover, the “Area under the dose-response curve (AUC) UISO Replicate 1” value with UISO cells (VN-MCC) (follow-up screen, UISO, replicate 1) is recorded as 471.2. The “Area under the dose-response curve (AUC) UISO Replicate 2” value in the experiment with UISO cells (VN-MCC) (follow-up screen, UISO, replicate 2) amounted to 418.0. Also, the “Area under the dose-response curve (AUC) UISO Replicate 3” value in the experiment with UISO cells (VN-MCC) (follow-up screen, UISO, replicate 3) was determined as 438.8. In the experiment with MCC26 cells (VN-MCC) (setting [5]), this compound yielded an MCC26_AUC of 492.758. Further, the “Area under the dose-response curve (AUC) MCC26 Replicate 1” value in the experiment on MCC26 cells (VN-MCC) (follow-up screen, MCC26, replicate 1) is 439.2. In the experiment on MCC26 cells (VN-MCC) (follow-up screen, MCC26, replicate 2), the “Area under the dose-response curve (AUC) MCC26 Replicate 2” value came to 416.6. Further, the “Area under the dose-response curve (AUC) MCC26 Replicate 3” value in the experiment with MCC26 cells (VN-MCC) (follow-up screen, MCC26, replicate 3) stood at 455.7. The compound further yielded an HEK293T_AUC with HEK293T cells (setting [6]) of 470.759. This compound also displayed an NIH3T3_AUC with NIH-3T3 cells (setting [7]) of 468.399. In the experiment on HACAT cells (setting [8]), the HACAT_AUC came to 451.959. The same compound yielded a WAGA_AUC with WAGA cells (VP-MCC) (setting [9]) of 416.987. For the same compound, in the experiment with WAGA cells (VP-MCC) (follow-up screen, WAGA, replicate 1), the “Area under the dose-response curve (AUC) WAGA Replicate 1” value is listed as 543.3. Besides, the “Area under the dose-response curve (AUC) WAGA Replicate 2” value in the experiment on WAGA cells (VP-MCC) (follow-up screen, WAGA, replicate 2) was determined as 384.9. Moreover, the “Area under the dose-response curve (AUC) WAGA Replicate 3” value with WAGA cells (VP-MCC) (follow-up screen, WAGA, replicate 3) is recorded as 441.0. For the same compound, the MKL2_AUC in the experiment with MKL-2 cells (VP-MCC) (setting [10]) came to 427.936. Moreover, the “Area under the dose-response curve (AUC) MKL-2 Replicate 1” value in the experiment on MKL-2 cells (VP-MCC) (follow-up screen, MKL-2, replicate 1) is 476.0. Further, the “Area under the dose-response curve (AUC) MKL-2 Replicate 2” value in the experiment on MKL-2 cells (VP-MCC) (follow-up screen, MKL-2, replicate 2) was found to be 454.8. In addition, the “Area under the dose-response curve (AUC) MKL-2 Replicate 3” value in the experiment on MKL-2 cells (VP-MCC) (follow-up screen, MKL-2, replicate 3) is 454.5.

In turn, `CCOC(=O)[C@H](CCc1ccccc1)N[C@@H](C)C(=O)N1CCC[C@H]1C(=O)O` [Enalapril maleate] gave an MKL1_AUC in the experiment on MKL-1 cells (VP-MCC) (setting [1]) of 398.754. Further, the CRL7250_AUC with CRL-7250 cells (setting [2]) worked out at 468.406. In the experiment with MCC13 cells (VN-MCC) (setting [3]), this compound registered an MCC13_AUC of 497.832. For the same compound, the UISO_AUC in the experiment on UISO cells (VN-MCC) (setting [4]) is recorded as 510.45. Also, the MCC26_AUC in the experiment on MCC26 cells (VN-MCC) (setting [5]) is listed as 486.615. In the experiment on HEK293T cells (setting [6]), this compound displayed an HEK293T_AUC of 479.159. The NIH3T3_AUC in the experiment on NIH-3T3 cells (setting [7]) is on record as 481.903. In the experiment with HACAT cells (setting [8]), the HACAT_AUC came to 461.773. Besides, the WAGA_AUC in the experiment on WAGA cells (VP-MCC) (setting [9]) is listed as 389.514. In the experiment with MKL-2 cells (VP-MCC) (setting [10]), this compound came in with an MKL2_AUC of 341.505.

In the experiment with MKL-1 cells (VP-MCC) ({}), `Cc1nc2c([nH]1)c(=O)n(C)c(=O)n2Cc1ccco1` [Furafylline] registered an MKL1_AUC of 414.343. In the experiment on CRL-7250 cells (setting [2]), this compound displayed a CRL7250_AUC of 466.658. Besides, the MCC13_AUC in the experiment on MCC13 cells (VN-MCC) (setting [3]) is on record as 444.774. The compound further came in with a UISO_AUC in the experiment with UISO cells (VN-MCC) (setting [4]) of 447.137. Also, the MCC26_AUC in the experiment with MCC26 cells (VN-MCC) (setting [5]) was determined as 399.611. This compound showed an HEK293T_AUC with HEK293T cells (setting [6]) of 497.799. Also, the NIH3T3_AUC in the experiment on NIH-3T3 cells (setting [7]) worked out at 485.732. The compound also gave an HACAT_AUC in the experiment with HACAT cells (setting [8]) of 476.414. The WAGA_AUC in the experiment on WAGA cells (VP-MCC) (setting [9]) is 445.554. In the experiment with MKL-2 cells (VP-MCC) (setting [10]), this compound came in with an MKL2_AUC of 443.745.

Compound `CS(=O)(=O)Oc1ccc2c(NC(N)=O)c(C(=O)c3ccc(Cl)cc3Cl)oc2c1` [Lirimilast] showed an MKL1_AUC in the experiment with MKL-1 cells (VP-MCC) of 416.805. In addition, the CRL7250_AUC with CRL-7250 cells stood at 477.656. In the experiment with MCC13 cells (VN-MCC), this compound displayed an MCC13_AUC of 475.91. The compound also registered a UISO_AUC with UISO cells (VN-MCC) of 491.115. The compound further registered an MCC26_AUC in the experiment with MCC26 cells (VN-MCC) of 450.578. The HEK293T_AUC with HEK293T cells stood at 473.552. The NIH3T3_AUC in the experiment on NIH-3T3 cells turned out to be 472.494. The compound also showed an HACAT_AUC in the experiment with HACAT cells of 475.167. In addition, the WAGA_AUC in the experiment with WAGA cells (VP-MCC) is given as 295.464. The same compound had an MKL2_AUC in the experiment on MKL-2 cells (VP-MCC) of 353.495.

As for `CCOc1cc(N)c(Cl)cc1C(=O)NCC1CN(Cc2ccc(F)cc2)CCO1` (centres unmarked) [Mosapride citrate], the MKL1_AUC in the experiment with MKL-1 cells (VP-MCC) (setting [1]) is listed as 438.77. The compound further had a CRL7250_AUC in the experiment with CRL-7250 cells (setting [2]) of 480.736. This compound came in with an MCC13_AUC in the experiment on MCC13 cells (VN-MCC) (setting [3]) of 479.818. For the same compound, the UISO_AUC in the experiment with UISO cells (VN-MCC) (setting [4]) was 489.758. Moreover, in the experiment on MCC26 cells (VN-MCC) (setting [5]), the MCC26_AUC was determined as 466.055. The HEK293T_AUC in the experiment on HEK293T cells (setting [6]) is listed as 457.079. For the same compound, the NIH3T3_AUC in the experiment on NIH-3T3 cells (setting [7]) is on record as 470.089. Besides, the HACAT_AUC with HACAT cells (setting [8]) was 473.779. Further, in the experiment with WAGA cells (VP-MCC) (setting [9]), the WAGA_AUC was found to be 443.892. Moreover, the MKL2_AUC with MKL-2 cells (VP-MCC) (setting [10]) was found to be 377.067.
